One test has as its target human α7 nAChR (Homo sapiens, UniProt P36544). Kind of test: cell-based. The conditions noted are these: EC50 of human α7nAChR(nM), HEK293T/17 cells transfected with human α7 nAChR; PNU-120596 added; relative to epibatidine 1 μM positive control.
Another test has as its system Male ICR mice. Kind of test: Novel Object Recognition Test (NORT), MK-801 induced amnesia. The conditions noted are these: Mus musculus; po; dose at which the relative RI is given; doses 0.03˜3 mg/kg; read-out: NORT MED. The test is classed as in vivo. An excerpt: A NORT, which was first introduced by Ennaceur and Delacour, is a cognitive memory test for measuring whether rats are able to remember objects with which they have had previous experience based on the nature of rats, i.e., preference to explore novel objects [Ennaceur A and Delacour J (1988) A new one-trial test for neurobiological studies of memory in rats. 1; Behavioral data. Behavioral Brain Res. 31; 47-59]. This NOR test is a popular experimental method for measuring changes in memory of objects in rodents administered with either an amnesia-inducing drug or other general drugs, by which memory recovery efficacy of a test drug in the rodents administered with the amnesia-inducing drug is explored. In the present example, the test was performed in accord with the description of Bevins and Besheer [Bevins, R. A. & Besheer, J. Object recognition in rats and mice; a one-trial non-matching-to-sample learning task to study ‘recognition memory’. Nat. Protoc. 2006; 1(3); 1306-11. (2006)]. Male ICR mice (available from Orient Bio Inc., Korea) weighing from about 20 g to about 32 g were orally administered a test compound dissolved in a 30% PEG at doses of 0.03˜3 mg/kg and 10 ml/kg body weight. 30 minutes after the administration, MK-801 (available from Sigma) dissolved in saline was subcutaneously administered at doses of 0.1 mg/kg and 10 ml/kg body weight to induce amnesia. About 30 minutes after the administration of MK-801, the mice were allowed to explore a rectangular stainless steel pillar or a circular plastic pillar which was previously placed in a box for about 5 minutes. About 24 hours after the exploration, one of the two objects previously presented was replaced with a new one (i.e., to include one rectangular stainless steel pillar and one circular plastic pillar), the times they took to explore were measured for about 5 minutes. A recognition index (RI) was defined as: [(Exploration time for novel object in test compound group/Exploration time for all objects in test compound group)/(Exploration time for novel object in MK801 group/Exploration time for all objects in MK801 group)×100].
Table 2 below presents relative RIs of the compounds at a minimal dose […].

A value given as a limit tells only on which side of the number the result lay.

Results on twelve compounds are retold here after patent publication US8716309B2, “Pharmaceutical composition comprising pyridone derivatives” (priority 2011, dated 2014).

human α7 nAChR, sequence (P36544 23-502): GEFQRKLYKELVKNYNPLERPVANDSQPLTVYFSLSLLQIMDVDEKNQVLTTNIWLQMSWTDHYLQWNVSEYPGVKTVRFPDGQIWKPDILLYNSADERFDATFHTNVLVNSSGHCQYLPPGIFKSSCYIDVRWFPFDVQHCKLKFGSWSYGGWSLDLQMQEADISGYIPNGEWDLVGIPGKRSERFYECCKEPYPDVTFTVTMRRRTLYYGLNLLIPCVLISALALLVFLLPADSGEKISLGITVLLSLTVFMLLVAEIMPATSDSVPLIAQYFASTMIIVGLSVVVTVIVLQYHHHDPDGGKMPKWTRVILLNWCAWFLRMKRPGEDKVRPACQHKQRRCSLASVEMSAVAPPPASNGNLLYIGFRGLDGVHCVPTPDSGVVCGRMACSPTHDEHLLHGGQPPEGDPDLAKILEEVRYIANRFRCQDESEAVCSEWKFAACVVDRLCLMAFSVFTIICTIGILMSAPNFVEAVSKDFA

As usually defined, the EC50 is the midpoint of the concentration-response curve. Low readings indicate greater potency, high ones weaker potency. For `O=C(NC1CN2CCC1CC2)c1ccc(=O)n(-c2ccc(Cl)cc2)c1` (stereo not drawn) [Example 4, N-(1-azabicyclo[2.2.2]octan-3-yl)-1-(4-chlorophenyl)-6-oxo-3-pyridinecarboxamide], the EC50 on human α7 nAChR is greater than 1000 nM. Besides, the minimal effective dose at 3 mg/kg in the test on Male ICR mice was 3 mg/kg.

At human α7 nAChR, `O=C(NC1CN2CCC1CC2)c1ccc(=O)n(-c2ccc(Cl)cc2Cl)c1` (stereo not drawn) [Example 25, N-(1-azabicyclo[2.2.2]octan-3-yl)-1-(2,4-dichlorophenyl)-6-oxo-3-pyridinecarboxamide] showed an EC50 of 500 to 1000 nM. In the test with Male ICR mice, the minimal effective dose is 3 mg/kg.

In the case of `O=C(N[C@H]1CN2CCC1CC2)c1ccc(=O)n(-c2ccc(Cl)cc2Cl)c1` [Example 26, N-[(3R)-1-azabicyclo[2.2.2]octan-3-yl)-1-(2,4-dichlorophenyl)-6-oxo-3-pyridinecarboxamide], the EC50 at human α7 nAChR lay within 100 to 500 nM. Besides, in the test on Male ICR mice, the minimal effective dose worked out at 1 mg/kg.

At human α7 nAChR, `O=C(N[C@@H]1CN2CCC1CC2)c1ccc(=O)n(-c2ccc(Cl)cc2Cl)c1` [Example 27, N-[(3S)-1-azabicyclo[2.2.2]octan-3-yl)-1-(2,4-dichlorophenyl)-6-oxo-3-pyridinecarboxamide] had an EC50 greater than 1000 nM. In addition, the minimal effective dose with Male ICR mice stood at 1 mg/kg.

In turn, `Cc1ccc(-n2cc(C(=O)NC3CN4CCC3CC4)ccc2=O)c(Cl)c1` (stereo not drawn) [Example 33, N-(1-azabicyclo[2.2.2]octan-3-yl)-1-(2-chloro-4-methylphenyl)-6-oxo-3-pyridinecarboxamide] registered an EC50 at human α7 nAChR of 100 to 500 nM. Besides, the minimal effective dose in the test with Male ICR mice worked out at 1 mg/kg.

As for `COc1ccc(-n2cc(C(=O)NC3CN4CCC3CC4)ccc2=O)c(SC)c1` (stereo not drawn) [Example 84, N-(1-azabicyclo[2.2.2]octan-3-yl)-1-[4-methoxy-2-(methylthio)phenyl]-6-oxo-3-pyridinecarboxamide], the EC50 at human α7 nAChR is less than 100 nM. In addition, in the test on Male ICR mice, the minimal effective dose stood at 0.3 mg/kg.

`CSc1cc(Cl)ccc1-n1cc(C(=O)NC2CN3CCC2CC3)ccc1=O` (stereo not drawn) [Example 86, N-(1-azabicyclo[2.2.2]octan-3-yl)-1-[4-chloro-2-(methylthio)phenyl]-6-oxo-3-pyridinecarboxamide] gave an EC50 at human α7 nAChR of less than 100 nM. The minimal effective dose in the test with Male ICR mice came out at 0.3 mg/kg.

Take `CSc1cc(C)ccc1-n1cc(C(=O)NC2CN3CCC2CC3)ccc1=O` (stereo not drawn) [Example 89, N-(1-azabicyclo[2.2.2]octan-3-yl)-1-[4-methyl-2-(methylthio)phenyl]-6-oxo-3-pyridinecarboxamide]: on human α7 nAChR, the concentration for a half-maximal effect (EC50) is less than 100 nM. For the same compound, the minimal effective dose with Male ICR mice stood at 0.03 mg/kg.

`CSc1cc(C)ccc1-n1cc(C(=O)N[C@@H]2CN3CCC2CC3)ccc1=O` [Example 91, N-[(3S)-1-azabicyclo[2.2.2]octan-3-yl]-1-[4-methyl-2-(methylthio)phenyl]-6-oxo-3-pyridinecarboxamide] yielded an EC50 at human α7 nAChR of 100 to 500 nM. In the test on Male ICR mice, the minimal effective dose at 3 mg/kg was found to be 3 mg/kg.

Consider `O=C(NC1CN2CCC1CC2)c1ccc(=O)n(-c2ccccc2-c2nccs2)c1` (stereo not drawn) [Example 104, N-(1-azabicyclo[2.2.2]octan-3-yl)-6-oxo-1-[2-(2-thiazolyl)phenyl]-3-pyridinecarboxamide], for which the EC50 at human α7 nAChR was 100 to 500 nM. The minimal effective dose with Male ICR mice came out at 3 mg/kg.

At human α7 nAChR, `O=C(NC1CN2CCC1CC2)c1ccc(=O)n(-c2ccc(Cl)cc2-c2nccs2)c1` (stereo not drawn) [Example 105, N-(1-azabicyclo[2.2.2]octan-3-yl)-1-[4-chloro-2-(2-thiazolyl)phenyl]-6-oxo-3-pyridine carboxamide] registered an EC50 of 500 to 1000 nM. Moreover, the minimal effective dose in the test with Male ICR mice worked out at 0.3 mg/kg.

In turn, `Cc1ccc(-c2ccc(-n3cc(C(=O)NC4CN5CCC4CC5)ccc3=O)c(Cl)c2)s1` (stereo not drawn) [Example 109, N-(1-azabicyclo[2.2.2]octan-3-yl)-1-[2-chloro-4-(5-methyl-2-thiophenyl)phenyl]-6-oxo-3-pyridinecarboxamide] registered an EC50 on human α7 nAChR of 100 to 500 nM. In addition, the minimal effective dose in the test with Male ICR mice was determined as 3 mg/kg.
